Assay results published in article PMC9269349, “Characterization of Four New Compounds from Protea cynaroides Leaves and Their Tyrosinase Inhibitory Potential” (Plants, 2022).

target: mushroom tyrosinase (Agaricus bisporus, UniProt C7FF04); assay: Antityrosinase inhibition assay (L-tyrosine substrate, absorbance at 490 nm); format: biochemical; conditions: against L-tyrosine substrate
Description: The skin enzymatic inhibitory assay was executed during the study following the approach used by Curto et al. and Nerya et al.. Extracts and isolates were dissolved in dimethyl sulfoxide (DMSO) to a final concentration of 20 mg/mL. […] After incubation at room temperature for 5 min, 110 μL of the substrate (2 mM L-tyrosine) was added to each well. […] Incubation commenced for 30 min at room temperature by measuring the absorbance at 490 nm with the […]1.11).

mushroom tyrosinase, sequence (G1K3P4 entry or part of it): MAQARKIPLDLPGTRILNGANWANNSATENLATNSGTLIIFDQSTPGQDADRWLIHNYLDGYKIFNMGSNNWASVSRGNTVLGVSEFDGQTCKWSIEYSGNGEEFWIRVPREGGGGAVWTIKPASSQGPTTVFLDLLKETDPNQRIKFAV
mushroom tyrosinase, sequence (C7FF04 1-392): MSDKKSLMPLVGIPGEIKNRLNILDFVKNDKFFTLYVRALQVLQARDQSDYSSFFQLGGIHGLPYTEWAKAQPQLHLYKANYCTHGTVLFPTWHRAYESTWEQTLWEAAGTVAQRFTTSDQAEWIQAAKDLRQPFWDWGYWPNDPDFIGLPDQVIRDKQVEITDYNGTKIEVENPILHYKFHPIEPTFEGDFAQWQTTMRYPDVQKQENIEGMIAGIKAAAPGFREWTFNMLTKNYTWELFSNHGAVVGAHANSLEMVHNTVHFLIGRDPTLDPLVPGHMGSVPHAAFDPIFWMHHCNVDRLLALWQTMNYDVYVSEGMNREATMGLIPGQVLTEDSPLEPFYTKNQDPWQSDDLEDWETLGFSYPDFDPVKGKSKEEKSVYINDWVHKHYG

Row | SMILES | tyrosinase inhibitory activity (in words)
1 | O=C(OCC1OC(Oc2c(CO)occc2=O)C(O)C(O)C1O)c1ccc(O)cc1 (centres unmarked) [Compound 3] | low inhibitory activity
2 | OC[C@H]1OC[C@H](O)[C@@H](O)[C@@H]1O [Compound 5, 1,5-anhydro-D-glucitol] | weak activity
3 | O=C(O)c1ccc(O)cc1 [Compound 6, 4-hydroxybenzoic acid] | weak activity
4 | O=C(O)c1ccc(O)c(O)c1 [Compound 7, 3,4-dihydroxybenzoic acid] | potent competitive tyrosinase inhibition
5 | O=c1c(O)coc(CO)c1O [Compound 8, 3-hydroxykojic acid] | potent competitive tyrosinase inhibition
